These results are taken from patent US9335325B2, “Immunodominant Mycobacterium tuberculosis peptides from cell wall proteins for early diagnosis and immunization” (priority 2008, dated 2016).

Experiment [1] concerns antibodies in sera from TB patients and PPD+/PPD- healthy subjects. In words: ELISA of PE-PGRS51 overlapping peptides with human sera. It is filed as binding. Conditions: for non-specific reactivity with sera from HIV+TB- subjects: 20 HIV+TB- subjects, positive/tested; for final sensitivity: percent of patients whose sera recognize the peptide: 90 sputum smear positive TB patients, positive 2/3 or 3/3 times, cut-off mean plus 4 SD; for Immunoreactive: PE-PGRS51 peptides, biotinylated, streptavidin plates, TB patient sera. On the technique in general: ELISA stands for enzyme-linked immunosorbent assay.

The subject of experiment [2] is antibodies in sera from HIV-TB+ patients and PPD+/PPD- healthy controls. In words: ELISA of PTRP overlapping peptides with human sera. It is filed as binding. As to conditions: for Immunoreactive: PTRP peptides, biotinylated, streptavidin plates, TB patient sera; for percent of HIV-TB+ patient sera positive with the peptide in 2/3 or 3/3 tests: 60 HIV-TB+ patients, cut-off mean OD of PPD+/PPD- plus 3 SD, retested twice.

Turning to AGAGGNGAAGGDGGANGGAG [PG-31], in experiment [1], the “non-specific reactivity with sera from HIV+TB- subjects” value (“non-specific reactivity with sera” for short) is listed as “no cross-reactivity”, the “final sensitivity: percent of patients whose sera recognize the peptide” value (from here on “final sensitivity: percent”) was 52% and the Immunoreactive entry is given as “++ (++ indicates that the peptides were recognized by 40% or more TB patient sera)”. In experiment [1] (30 smear positive HIV+TB+ patients), the “percent of HIV+TB+ patient sera recognizing the peptide (sensitivity)” value is 57%.
Regarding DATTSLPRAEAGQSGSEGEQ [PT-23], in experiment [2], the Immunoreactive result is recorded as “++ (++ indicates that the peptides were recognized by 40% or more TB patient sera)”.
Take DGGLLFGNGGAGYNSAATPG [PG-14]: the Immunoreactive entry in experiment [1] is reported as “++ (++ indicates that the peptides were recognized by 40% or more TB patient sera)”.
On to DRSLAGENHRLVATRLCWPD [PT-6], for which, in experiment [2], the Immunoreactive result is “++ (++ indicates that the peptides were recognized by 40% or more TB patient sera)”.
FPGWQPGMPTIPTAPPTTPV [PT-41]: in experiment [2], the “percent of HIV-TB+ patient sera positive with the peptide in 2/3 or 3/3 tests” value (shortened to “percent of HIV-TB+ patient sera positive”) is recorded as 55% and the Immunoreactive result is on record as “++ (++ indicates that the peptides were recognized by 40% or more TB patient sera)”.
For GGTGGDGGDGGHAGTGGRGG [PG-51], the Immunoreactive result in experiment [1] is on record as “++ (++ indicates that the peptides were recognized by 40% or more TB patient sera)”.
Turning to GGTHGTPGSGNAGGTGTGNA [PG-55], in experiment [1], the “final sensitivity: percent” value is on record as 49% and the Immunoreactive result is on record as “++ (++ indicates that the peptides were recognized by 40% or more TB patient sera)”.
Consider GHAGTGGRGGLLAGQHANSG [PG-52], for which the Immunoreactive result in experiment [1] was “++ (++ indicates that the peptides were recognized by 40% or more TB patient sera)”.
On the same count and under the same terms, the value for GNGGAGGDANGNPANTSIAN [PG-29] was “++ (++ indicates that the peptides were recognized by 40% or more TB patient sera)”; that for GTPGGAGVNGGNGGAGGDAN [PG-28] was “++ (++ indicates that the peptides were recognized by 40% or more TB patient sera)”.
Regarding LAAAASDVANIGSALSAANA [PG-2], in experiment [1], the “non-specific reactivity with sera” value is recorded as 2/20, the “final sensitivity: percent” value came to 48% and the Immunoreactive entry was “++ (++ indicates that the peptides were recognized by 40% or more TB patient sera)”.
On to LLAGQHANSGNGGGGGTGGA [PG-53], for which the Immunoreactive entry in experiment [1] is on record as “++ (++ indicates that the peptides were recognized by 40% or more TB patient sera)”.
For LQDSGVHDVAVISEAQAATA [PT-9], in experiment [2], the “percent of HIV-TB+ patient sera positive” value is reported as 58% and the Immunoreactive result is given as “++ (++ indicates that the peptides were recognized by 40% or more TB patient sera)”.
The corresponding values for LSVVGDPDAPPTMVAVAPVA [PT-13] are 53% and “++ (++ indicates that the peptides were recognized by 40% or more TB patient sera)”.
LTGNDGVNPAPVTNPALNGA [PG-24]: in experiment [1], the Immunoreactive result is given as “++ (++ indicates that the peptides were recognized by 40% or more TB patient sera)”.
Same read-out and setting: as for MAGGNGGNAGLIGNGGTGGS [PG-16], the entry is “++ (++ indicates that the peptides were recognized by 40% or more TB patient sera)”.
For the sequence MDVALGVAVTDRVARLALVD [PT-1], the Immunoreactive result in experiment [2] is listed as “++ (++ indicates that the peptides were recognized by 40% or more TB patient sera)”.
As to NGGAGGDAGHGGTGGDGGDG [PG-50], in experiment [1], the “non-specific reactivity with sera” value is 1/20, the “final sensitivity: percent” value was found to be 50% and the Immunoreactive entry is reported as “++ (++ indicates that the peptides were recognized by 40% or more TB patient sera)”.
For the sequence PIPVPIIIPPFPGWQPGMPT [PT-40], in experiment [2], the “percent of HIV-TB+ patient sera positive” value stood at 52% and the Immunoreactive result was “++ (++ indicates that the peptides were recognized by 40% or more TB patient sera)”.
For the sequence PTMVAVAPVAGADATSTVDT [PT-14], the Immunoreactive result in experiment [2] is reported as “++ (++ indicates that the peptides were recognized by 40% or more TB patient sera)”.
As for TGAGGSYALTEAANVQQNLL [PG-9], the Immunoreactive entry in experiment [1] is given as “++ (++ indicates that the peptides were recognized by 40% or more TB patient sera)”.
